Reference: ChEMBL document CHEMBL1201862, “PubChem BioAssay data set” (2004)
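All cell lines were grown in 96-well plates and treated with compound for 48 hours. GI50 is the concentration that inhibits growth by half.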 Active and inactive are the calls of the source. No stated cut-off is given here; in the data, active = GI50 up to about 1.1 µM and inactive = higher.

Key:
Assay in all cases: growth of human tumour cells (NCI), 48 h
OVCAR-5 = tested on: OVCAR-5
UACC-257 = tested on: UACC-257
OVCAR-3 = tested on: OVCAR-3
COLO 205 = tested on: COLO 205
MOLT-4 = tested on: MOLT-4
HCT-116 = tested on: HCT-116
LOX IMVI = tested on: LOX IMVI
KM12 = tested on: KM12
HOP-62 = tested on: HOP-62
RPMI-8226 = tested on: RPMI-8226
SF-268 = tested on: SF-268
NCI-H522 = tested on: NCI-H522
SR = tested on: SR
A549 = tested on: A549
SW-620 = tested on: SW-620
CAKI-1 = tested on: CAKI-1
SK-MEL-2 = tested on: SK-MEL-2

Structure (SMILES) | GI50 (OVCAR-5) | GI50 (UACC-257) | GI50 (OVCAR-3) | GI50 (COLO 205) | GI50 (MOLT-4) | GI50 (HCT-116) | GI50 (LOX IMVI) | GI50 (KM12) | GI50 (HOP-62) | GI50 (RPMI-8226) | GI50 (SF-268) | GI50 (NCI-H522) | GI50 (SR) | GI50 (A549) | GI50 (SW-620) | GI50 (CAKI-1) | GI50 (SK-MEL-2)
CCC1(O)C(=O)OCc2c1cc1n(c2=O)Cc2cc3cc(OC)c(OC)cc3nc2-1 (stereo not drawn) | > 100 µM (inactive) | > 100 µM (inactive) | 83.4 µM (inactive) | 32.6 µM (inactive) | 4.85 µM (inactive) | 22.3 µM (inactive) | 7.19 µM (inactive) | > 100 µM (inactive) | 2.79 µM (inactive) | 46.8 µM (inactive) | 11.4 µM (inactive) | 8.61 µM (inactive) | 2.29 µM (inactive) | 33.1 µM (inactive) | – | – | –
CN(C)c1ccc(/C=C(\NC(=O)c2ccccc2)c2nc3ccc4c(c3[nH]2)C(=O)c2ccccc2C4=O)cc1 | > 100 µM (inactive) | > 100 µM (inactive) | 32.2 µM (inactive) | > 100 µM (inactive) | 2.65 µM (inactive) | 20.9 µM (inactive) | 20.2 µM (inactive) | 5.19 µM (inactive) | 61.9 µM (inactive) | 3.18 µM (inactive) | 7.14 µM (inactive) | 8.79 µM (inactive) | – | 20 µM (inactive) | 33.2 µM (inactive) | 9.1 µM (inactive) | 61.8 µM (inactive)
Cc1ccc(S(=O)(=O)N/N=C\c2c3ccccc3[n+]([O-])c3ccccc23)cc1 | 14.7 µM (inactive) | 9.95 µM (inactive) | 16.1 µM (inactive) | 2.72 µM (inactive) | 0.612 µM (active) | 0.472 µM (active) | 1.08 µM (active) | 9.55 µM (inactive) | 5.38 µM (inactive) | 0.415 µM (active) | 4.23 µM (inactive) | 2.02 µM (inactive) | – | 5.12 µM (inactive) | 2.18 µM (inactive) | 6.28 µM (inactive) | 4.41 µM (inactive)
CC(=O)N(O)Cc1ccccc1 | > 100 µM (inactive) | > 100 µM (inactive) | > 100 µM (inactive) | > 100 µM (inactive) | > 100 µM (inactive) | > 100 µM (inactive) | > 100 µM (inactive) | > 100 µM (inactive) | > 100 µM (inactive) | > 100 µM (inactive) | > 100 µM (inactive) | > 100 µM (inactive) | > 100 µM (inactive) | > 100 µM (inactive) | > 100 µM (inactive) | > 100 µM (inactive) | –
CCOC(=O)C(C)(C)Oc1ccc2c(=O)cc(-c3ccc(Cl)cc3)oc2c1 | – | > 100 µM (inactive) | > 100 µM (inactive) | > 100 µM (inactive) | > 100 µM (inactive) | > 100 µM (inactive) | > 100 µM (inactive) | – | > 100 µM (inactive) | > 100 µM (inactive) | > 100 µM (inactive) | – | > 100 µM (inactive) | > 100 µM (inactive) | > 100 µM (inactive) | – | > 100 µM (inactive)
COc1ccc(NC(=O)C(C)Oc2ccc(OCC3CCCCC3)cc2)cc1 (stereo not drawn) | – | 36.6 µM (inactive) | 62.5 µM (inactive) | – | 54.5 µM (inactive) | > 100 µM (inactive) | 30.7 µM (inactive) | > 100 µM (inactive) | – | – | > 100 µM (inactive) | 25.6 µM (inactive) | – | 54.1 µM (inactive) | – | – | 81.1 µM (inactive)
NC(=S)N/N=C(/CC(=O)c1ccccc1)C(=O)Nc1ccc(Cl)c(Cl)c1 | > 100 µM (inactive) | > 100 µM (inactive) | 37.3 µM (inactive) | > 100 µM (inactive) | 32.3 µM (inactive) | > 100 µM (inactive) | 74.3 µM (inactive) | 65.3 µM (inactive) | 60.4 µM (inactive) | 73.3 µM (inactive) | > 100 µM (inactive) | 21.6 µM (inactive) | – | > 100 µM (inactive) | 78.5 µM (inactive) | 68.5 µM (inactive) | 78.2 µM (inactive)
COc1ccc(OC)c2[nH]c(Sc3c([N+](=O)[O-])ncn3C)nc12 | 94.6 µM (inactive) | 15.3 µM (inactive) | 16.8 µM (inactive) | 11.6 µM (inactive) | – | 21.7 µM (inactive) | 79.1 µM (inactive) | 43.1 µM (inactive) | > 100 µM (inactive) | – | 26.5 µM (inactive) | – | – | 33.7 µM (inactive) | 24.5 µM (inactive) | 17.1 µM (inactive) | –
COc1ccc(OC(C(=O)O)c2ccccc2)c2c1CCCC2=O (stereo not drawn) | > 100 µM (inactive) | > 100 µM (inactive) | > 100 µM (inactive) | > 100 µM (inactive) | > 100 µM (inactive) | > 100 µM (inactive) | > 100 µM (inactive) | > 100 µM (inactive) | > 100 µM (inactive) | > 100 µM (inactive) | > 100 µM (inactive) | > 100 µM (inactive) | – | > 100 µM (inactive) | > 100 µM (inactive) | > 100 µM (inactive) | > 100 µM (inactive)
c1ccc(CN(Cc2ccccn2)Cn2cccn2)nc1 | – | 39 µM (inactive) | > 100 µM (inactive) | 57.1 µM (inactive) | 29.2 µM (inactive) | 22.5 µM (inactive) | 67.6 µM (inactive) | 63.8 µM (inactive) | > 100 µM (inactive) | 28.9 µM (inactive) | 76.6 µM (inactive) | > 100 µM (inactive) | 33.4 µM (inactive) | 54.6 µM (inactive) | 48 µM (inactive) | > 100 µM (inactive) | > 100 µM (inactive)
CC1=C(c2cc(C(=O)Nc3cccc(C(F)(F)F)c3)ncn2)Sc2ccccc2N1 | – | > 100 µM (inactive) | > 100 µM (inactive) | > 100 µM (inactive) | > 100 µM (inactive) | > 100 µM (inactive) | – | > 100 µM (inactive) | > 100 µM (inactive) | > 100 µM (inactive) | > 100 µM (inactive) | > 100 µM (inactive) | > 100 µM (inactive) | > 100 µM (inactive) | > 100 µM (inactive) | > 100 µM (inactive) | > 100 µM (inactive)
Cc1ccc(NC(=O)C(=O)C(C(=O)c2ccc3ccccc3c2)C2OC(=O)c3ccccc32)cc1C (stereo not drawn) | 23.9 µM (inactive) | 10 µM (inactive) | 10.9 µM (inactive) | 16.6 µM (inactive) | 3.3 µM (inactive) | 11.8 µM (inactive) | 14.4 µM (inactive) | 19.5 µM (inactive) | 14.7 µM (inactive) | 4.7 µM (inactive) | 7.41 µM (inactive) | 3.03 µM (inactive) | – | 16.5 µM (inactive) | 14.7 µM (inactive) | 8.57 µM (inactive) | 15.5 µM (inactive)
CC1(C)CC(C)(C)CC(O)(C2(O)CC(C)(C)CC(C)(C)C2)C1 | – | > 100 µM (inactive) | > 100 µM (inactive) | > 100 µM (inactive) | > 100 µM (inactive) | > 100 µM (inactive) | > 100 µM (inactive) | > 100 µM (inactive) | > 100 µM (inactive) | > 100 µM (inactive) | > 100 µM (inactive) | > 100 µM (inactive) | > 100 µM (inactive) | > 100 µM (inactive) | > 100 µM (inactive) | – | –
Cc1nc2c(n1Cc1ccc(F)cc1)C(=O)c1ccccc1C2=O | – | 26.6 µM (inactive) | 15.1 µM (inactive) | 18.9 µM (inactive) | 5.4 µM (inactive) | 6.89 µM (inactive) | 7.18 µM (inactive) | 42.2 µM (inactive) | 27.7 µM (inactive) | – | 4.6 µM (inactive) | 10.8 µM (inactive) | 4.29 µM (inactive) | 36.5 µM (inactive) | 41.3 µM (inactive) | – | 34.1 µM (inactive)
CC(=O)[O-].Cc1ncc(CO)c(/C=N/NC(N)=S)c1[O-].[Zn+2] | > 100 µM (inactive) | > 100 µM (inactive) | > 100 µM (inactive) | > 100 µM (inactive) | > 100 µM (inactive) | > 100 µM (inactive) | > 100 µM (inactive) | – | > 100 µM (inactive) | > 100 µM (inactive) | > 100 µM (inactive) | – | > 100 µM (inactive) | > 100 µM (inactive) | > 100 µM (inactive) | – | > 100 µM (inactive)
CCc1oc2ccc(OC)c3c2c1C=CC=C3 | > 100 µM (inactive) | > 100 µM (inactive) | > 100 µM (inactive) | > 100 µM (inactive) | > 100 µM (inactive) | – | > 100 µM (inactive) | > 100 µM (inactive) | > 100 µM (inactive) | > 100 µM (inactive) | > 100 µM (inactive) | > 100 µM (inactive) | > 100 µM (inactive) | > 100 µM (inactive) | > 100 µM (inactive) | – | > 100 µM (inactive)
CCCCCCCOc1ccc(/C=C\c2cc[n+](CCCCCCCC[n+]3ccc(/C=C\c4ccc(OCCCCCCC)cc4)cc3)cc2)cc1 | 17.7 µM (inactive) | 86.1 µM (inactive) | 19.1 µM (inactive) | 10.7 µM (inactive) | 15.2 µM (inactive) | 13.6 µM (inactive) | 25 µM (inactive) | 15 µM (inactive) | 26.6 µM (inactive) | 7.29 µM (inactive) | 23.8 µM (inactive) | 2.64 µM (inactive) | – | 8.55 µM (inactive) | – | 33.5 µM (inactive) | 17.6 µM (inactive)
Cc1cccc2c1C/C(=C1\CCc3c(C)cccc31)C2=O | > 100 µM (inactive) | > 100 µM (inactive) | > 100 µM (inactive) | > 100 µM (inactive) | > 100 µM (inactive) | > 100 µM (inactive) | > 100 µM (inactive) | > 100 µM (inactive) | > 100 µM (inactive) | – | > 100 µM (inactive) | – | > 100 µM (inactive) | > 100 µM (inactive) | > 100 µM (inactive) | > 100 µM (inactive) | > 100 µM (inactive)
